Test results taken from patent publication US20170209375A1, “NANOPARTICLE FORMULATIONS OF LOW-WATER SOLUBILITY ACTIVES” (Bend Research, Inc., priority 2014, published 2017).
≈ marks a conversion by molar mass, not a printed value. Where “and” joins values, the source holds several entries; their conditions need not be identical. Equal entries are not always repeated. Structures can show the parent of a compound that is named as a salt. Where two headings read alike, the source gives them in different places.

Assays:
[1] = cited from earlier work
[2] = pKa of counterions and active agents; format: physicochemical; conditions: active vs its counterion; read-out: difference between the pKa of the active and the counterion
[3] = pH 6.5; cited from earlier work
[4] = counterion, first value of the cell, some values marked estimated

Question: With O=C(CC(C(=O)OC1CCCCC1)S(=O)(=O)O)OC1CCCCC1 (stereo not drawn) [1,4-dicyclohexyloxy-1,4-dioxobutane-2-sulfonate] as the molecule, how does the pKa [1, 4] read?
Answer: <1 estimated

Question: With CC(C)CCOC(=O)CC(C(=O)OCCC(C)C)S(=O)(=O)O (stereo not drawn) [1,4-diisopentyloxy-1,4-dioxobutane-2-sulfonate] as the molecule, how does the pKa [1, 4] read?
Answer: <1 estimated

Question: For CC(C)(C)c1ccc2c(S(=O)(=O)O)c(C(C)(C)C)ccc2c1S(=O)(=O)O [2,6-di-tert-butylnaphthalene-1,5-disulfonate], which pKa [1, 4] is on record?
Answer: −2.32

Question: And the pKa ([1]; counterion, second value printed in the same cell)?
Answer: −3.05

Question: For CC(C)(C)c1ccc2c(S(=O)(=O)O)c(C(C)(C)C)ccc2c1 [2,6-di-tert-butylnaphthalene-1-sulfonate], which pKa [1, 4] is on record?
Answer: −2.48

Question: Which pKa [1, 4] does the source give for O=S(=O)(O)c1ccc2ccccc2c1 [2-Naphthalenesulfonate, 2-naphthalene sulfonate] here?
Answer: 0.17

Question: For COc1ccc(-c2ccc3cc(C(=O)O)ccc3c2)cc1C12CC3CC(CC(C3)C1)C2 [Adapalene, reference compound], which pKa [2] is on record?
Answer: 5.2

Question: And the pKa ([1]; active agent)?
Answer: 4.2

Question: With CC(C)CCC[C@@H](C)[C@H]1CC[C@H]2[C@@H]3CC=C4C[C@@H](OP(=O)(O)O)CC[C@]4(C)[C@H]3CC[C@]12C [Cholesteryl phosphate, cholesteryl phosphate] as the molecule, how does the pKa [1, 4] read?
Answer: <2 estimated

Question: Which pKa [1, 4] does the source give for CC(C)CCC[C@@H](C)[C@H]1CC[C@H]2[C@@H]3CC=C4CC(OS(=O)(=O)O)CC[C@]4(C)[C@H]3CC[C@]12C (stereo partly drawn) [Cholesteryl sulfate, cholesteryl sulfate] here?
Answer: <1 estimated

Question: Which pKa [2] does the source give for C#Cc1cccc(Nc2ncnc3cc(OCCOC)c(OCCOC)cc23)c1 [Erlotinib, N-(3-ethynylphenyl)-6,7-bis(2-methoxyethoxy) quinazolin-4-amine, reference compound] here?
Answer: ≥ 4.4

Question: What about the pKa ([1]; active agent) of the same molecule?
Answer: 5.42 and 5.4

Question: What about the “solubility in phosphate buffered saline” value [3] of the same molecule?
Answer: 1 µg/mL (≈ 2.54 µM)

Question: Which pKa [1, 4] does the source give for c1ccc(CNCCNCc2ccccc2)cc1 [N,N′-dibenzylethylene diamine] here?
Answer: 6.2

Question: Which pKa [1, 4] does the source give for c1ccc(CCNCc2ccccc2)cc1 [N-(benzyl)-2-phenylethan-1-amine] here?
Answer: 9.4

Question: Which pKa [1, 4] does the source give for CC(C)c1ccc2c(c1)CC[C@H]1[C@](C)(CNCCNC[C@]3(C)CCC[C@]4(C)c5ccc(C(C)C)cc5CC[C@@H]34)CCC[C@]21C [N^1,N^2-bis(((1 R,4aS,10aR)-7-isopropyl-1,4a-dimethyl-1,2,3,4,4a,9,10,10a-octahydrophenanthren-1-yl)methyl)ethane-1,2-diamine] here?
Answer: 6.6

Question: With Cc1c(C)c2c(c(C)c1OP(=O)(O)O)CCC(C)(CCCC(C)CCCC(C)CCCC(C)C)O2 (stereo not drawn) [Tocopherol phosphate, tocopherol phosphate] as the molecule, how does the pKa [1, 4] read?
Answer: <2 estimated

Question: With Cc1c(C)c2c(c(C)c1OS(=O)(=O)O)CCC(C)(CCCC(C)CCCC(C)CCCC(C)C)O2 (stereo not drawn) [Tocopherol sulfate, tocopherol sulfate] as the molecule, how does the pKa [1, 4] read?
Answer: <1 estimated
